pIC50: −log10 of the molar value.
Experiments:
DU145 tumor cells = assay: MTT growth inhibition of DU145 cells, 72 h; assay type: cell-based, human; conditions: for pIC50 / IC90: DU145, 72 h, MTT
Protocol: DU145 cells were inoculated in RPM11640 medium containing 10% calf serum, incubated at 37° C., 5% CO2 in CO2 incubator, and passaged every 2-3 days. In this experiment, cells were grown in logarithmic growth phase.
In the experiment, the cells at logarithmic growth phase were formulated into suspension, and the viability by trypan blue staining was more than 98%. The suspension was divided into several groups: 1 as blank control group (cell suspension); and 2 as experimental groups (cell suspension plus drugs).
(§1) The drugs were formulated into a stock solution in DMSO, and the concentration of the stock solution was 20 mmol (used within 4 hours). In the experiment, the work solution of the drugs was diluted with RPM11640 medium containing 10% calf serum under aseptic condition, to a final concentration of 80 μM. The drug concentrations were increased by 2 times (1.25-20 μM).
(§2) The DU145 cell in logarithmic growth phase were selected, centrifuged, counted, and formulated into a cell suspension (2.5×10^4/ml) with RPM11640 medium containing 10% calf serum. The cell suspension were inoculated into 96-well plates at a density of 5000 cells/200 μl per well, incubated for 24 hours at 37° C., 5% CO2. According to the above concentration of the drug, the cells were inoculated to 6 groups (including one control group), with 8 wells per group. After incubating for 72 hours, the viability of cells was measured by MTT assay. The absorbance value (A) was measured with detection wavelength at 540 nm, reference wavelength at 630 nm. The inhibitory rate (I) was calculated by the following equation, where T was the absorbance value of the experimental groups, and C was the absorbance value of the blank control group: I=(1−T/C)×100%
(§3) The regression equation was calculated by the concentration-inhibitory rate curve, to obtain 50% and 90% inhibition concentration (IC50 and IC90, μM).

[1] = system: human hepatoma cell line 7701 QGY; assay: MTT growth inhibition of 7701 QGY cells; assay type: cell-based; conditions: read-out: IC50 (μM) Tumor cells 7701 QGY
Protocol: as §1, §2, §3
(§4) 1. Tumor Cells: human hepatoma cell lines 7701 QGY and HepG-2, human lung adenocarcinoma cell line A549, human chronic myelocytic leukemia cell line K562, human leukemia cell line CEM and mouse melanoma cell line K111.
(§5) 2. Using the methods described in example 2, the biological activity of a portion of newly synthesized 5- or 7-azaindirubin derivatives and 5- or 7-azaisoindigo derivatives (20 compounds) for inhibiting various tumor cells growth were determined.

[2] = system: human leukemia cell line CEM; assay: MTT growth inhibition of CEM cells; assay type: cell-based; conditions: read-out: IC50 (μM) Tumor cells CEM
Protocol: as §1, §2, §3, §4, §5

[3] = system: human chronic myelocytic leukemia cell line K562; assay: MTT growth inhibition of K562 cells; assay type: cell-based; conditions: read-out: IC50 (μM) Tumor cells K562
Protocol: as §1, §2, §3, §4, §5

[4] = system: mouse melanoma cell line K111; assay: MTT growth inhibition of K111 cells; assay type: cell-based; conditions: Klll, read-out: IC50 (μM) Tumor cells Klll
Protocol: as §1, §2, §3, §4, §5

[5] = system: human lung adenocarcinoma cell line A549; assay: MTT growth inhibition of A549 cells; assay type: cell-based; conditions: read-out: IC50 (μM) Tumor cells A549
Protocol: as §1, §2, §3, §4, §5

[6] = system: human hepatoma cell line HepG-2; assay: MTT growth inhibition of HepG-2 cells; assay type: cell-based; conditions: HepG-2, MTT; read-out: IC50 (μM) Tumor cells HepG-2
Protocol: as §1, §2, §3, §4, §5

[7] = Homo sapiens, DU-145, 72 h, Table 5
[8] = Homo sapiens, DU-145, 72 h, Table 6

Row | Compound | pIC50 (DU145 tumor cells; Table 5) | IC90 (DU145 tumor cells; Table 5) | pIC50 (DU145 tumor cells; Table 6) | IC90 (DU145 tumor cells; Table 6) | other results
1 | CC(C)N1C(=O)C(=C2Nc3ccccc3C2=O)c2cnccc21 [Compound 7] | < 4.00 |  |  |  | 
2 | CCCCN1C(=O)C(=C2Nc3ccccc3C2=O)c2cnccc21 [Compound 8] | 4.94 | 39 µM |  |  | 
3 | O=C1C(=C2C(=O)N(Cc3ccccc3)c3ccncc32)Nc2ccccc21 [Compound 9] | 4.92 | 85 µM |  |  | 
4 | CCN1C(=O)C(=C2Nc3ccc(Br)cc3C2=O)c2cnccc21 [Compound 12] | 5.06 | 28 µM |  |  | 
5 | CC(C)N1C(=O)C(=C2Nc3ccc(Cl)cc3C2=O)c2cnccc21 [Compound 15] | 5.05 | 48 µM |  |  | 
6 | CN1C(=O)C(=C2Nc3ccc(Cl)cc3C2=NO)c2cnccc21 [Compound 25] | 5.77 | 12.2 µM |  |  | growth inhibitory effects on tumor cells (in words) (DU145 tumor cells; discussion of the MTT assay, DU145): relatively significant growth inhibitory effects
7 | CCN1C(=O)C(=C2Nc3ccc(Br)cc3C2=NO)c2cnccc21 [Compound 28] | 5.35 | 14 µM |  |  | 
8 | CCN1C(=O)C(=C2Nc3ccc(Cl)cc3C2=NO)c2cnccc21 [Compound 29] | 5.66 | 6.8 µM |  |  | 
9 | CC(C)N1C(=O)C(=C2Nc3ccc(Cl)cc3C2=NO)c2cnccc21 [Compound 31] | 5.43 | 11.5 µM |  |  | 
10 | O=C1C(=C2Nc3ccc(Cl)cc3C2=NO)c2cnccc2N1Cc1ccccc1 [Compound 35] | 5.14 | 20 µM |  |  | 
11 | CCN1C(=O)C(=C2Nc3ccccc3C2=NO)c2cnccc21 [Compound 38] | 5.19 | 22 µM |  |  | 
12 | CN1C(=O)C(=C2C(=O)Nc3ccc(F)cc32)c2cnccc21 [Compound 63] | 4.32 | > 100 µM |  |  | 
13 | CC(=O)OCC1OC(N2C(=O)C(=C3C(=O)Nc4ccccc43)c3cnccc32)C(OC(C)=O)C1OC(C)=O (stereo not drawn) [Compound 67] | 5.10 | 44 µM |  |  | 
14 | CCN1C(=O)C(=C2C(=O)Nc3ccc(F)cc32)c2cnccc21 [Compound 71] | 4.77 | 87 µM |  |  | 
15 | CC(C)N1C(=O)C(=C2C(=O)Nc3ccc(Cl)cc32)c2cnccc21 [Compound 75] | 5.01 | 29 µM |  |  | 
16 | CCCCN1C(=O)C(=C2C(=O)Nc3ccccc32)c2cnccc21 [Compound 78] | 4.80 | 51 µM |  |  | 
17 | CCCCN1C(=O)C(=C2C(=O)Nc3ccc(Br)cc32)c2cnccc21 [Compound 79] | 4.84 | 77 µM |  |  | 
18 | CCCCN1C(=O)C(=C2C(=O)Nc3ccc(F)cc32)c2cnccc21 [Compound 82] | < 4.00 | > 100 µM |  |  | 
19 | CCN1C(=O)/C(=C2\Nc3ccccc3C2=O)c2ccccc21 [Compound 90, 1-ethyl-indirubin, reference compound] |  |  |  |  | pIC50 (DU145 tumor cells; [7]): 5.14; IC90 (DU145 tumor cells; [7]): 31 µM; pIC50 (DU145 tumor cells; [8]): 5.15; IC90 (DU145 tumor cells; [8]): 30 µM
20 | COc1ccc2c(c1)C(=O)C(=C1C(=O)N(C)c3ncc(C)cc31)N2 [Compound 95] |  |  | 3.40 | > 100 µM | IC50 [1]: 23.9 µM; IC50 [2]: 9 µM; IC50 [3]: 8.1 µM; IC50 [4]: 15.6 µM; IC50 [5]: 35.2 µM; IC50 [6]: 50.1 µM
21 | CC(C)N1C(=O)C(=C2Nc3ccccc3C2=O)c2cccnc21 [Compound 98] |  |  | < 4.00 |  | 
22 | CCCCN1C(=O)C(=C2Nc3ccccc3C2=O)c2cccnc21 [Compound 99] |  |  | 4.94 | 87 µM | IC50 [1]: 12.4 µM; IC50 [2]: 7.1 µM; IC50 [3]: 6.7 µM; IC50 [4]: 10.1 µM; IC50 [5]: 18.4 µM; IC50 [6]: 29.3 µM
23 | O=C1C(=C2C(=O)N(Cc3ccccc3)c3ncccc32)Nc2ccccc21 [Compound 100] |  |  | 5.02 | 31.5 µM | 
24 | CN1C(=O)C(=C2Nc3ccc(Br)cc3C2=O)c2cccnc21 [Compound 101] |  |  | 4.94 | 60 µM | IC50 [1]: 15 µM; IC50 [2]: 12 µM; IC50 [3]: 7.8 µM; IC50 [4]: 23 µM; IC50 [5]: 21.6 µM; IC50 [6]: 28.8 µM

Row | Compound | pIC50 (DU145 tumor cells; Table 5) | IC90 (DU145 tumor cells; Table 5) | pIC50 (DU145 tumor cells; Table 6) | IC90 (DU145 tumor cells; Table 6) | other results
25 | CN1C(=O)C(=C2Nc3ccc(Cl)cc3C2=O)c2cccnc21 [Compound 102] |  |  | 5.10 | 18 µM | IC50 [1]: 39.5 µM; IC50 [2]: 7 µM; IC50 [3]: 9.5 µM; IC50 [4]: 18.2 µM; IC50 [5]: 22.8 µM; IC50 [6]: 41.5 µM
26 | CCN1C(=O)C(=C2Nc3ccc(Br)cc3C2=O)c2cccnc21 [Compound 103] |  |  | 5.00 | 32.2 µM | 
27 | CCN1C(=O)C(=C2Nc3ccc(Cl)cc3C2=O)c2cccnc21 [Compound 104] |  |  | 5.07 | 45 µM | 
28 | CC(C)N1C(=O)C(=C2Nc3ccc(Br)cc3C2=O)c2cccnc21 [Compound 105] |  |  | 5.09 | 28.5 µM | IC50 [1]: 13.4 µM; IC50 [2]: 8 µM; IC50 [3]: 19 µM; IC50 [4]: 11.9 µM; IC50 [5]: 24.1 µM; IC50 [6]: 32 µM
29 | CC(C)N1C(=O)C(=C2Nc3ccc(Cl)cc3C2=O)c2cccnc21 [Compound 106] |  |  | 4.73 | 100 µM | IC50 [1]: 28 µM; IC50 [2]: 10.2 µM; IC50 [3]: 20.4 µM; IC50 [4]: 14 µM; IC50 [5]: 19.6 µM; IC50 [6]: 18 µM
30 | CCCCN1C(=O)C(=C2Nc3ccc(Br)cc3C2=O)c2cccnc21 [Compound 107] |  |  | 4.85 | 26 µM | 
31 | CCCCN1C(=O)C(=C2Nc3ccc(Cl)cc3C2=O)c2cccnc21 [Compound 108] |  |  | 4.96 | 42 µM | 
32 | O=C1C(=C2C(=O)N(Cc3ccccc3)c3ncccc32)Nc2ccc(Br)cc21 [Compound 109, 1-benzyl-5′-bromo-7-azaindirubin] |  |  | 5.15 | 24 µM | IC50 [1]: 10 µM; IC50 [2]: 9 µM; IC50 [3]: 12.5 µM; IC50 [4]: 18.6 µM; IC50 [5]: 15.8 µM; IC50 [6]: 21.2 µM
33 | CNc1cnc2c(c1)C(=C1Nc3ccc(F)cc3C1=O)C(=O)N2Cc1ccccc1 [Compound 111] |  |  | 5.13 | 34 µM | IC50 [1]: 28.5 µM; IC50 [2]: 11 µM; IC50 [3]: 15 µM; IC50 [4]: 15.1 µM; IC50 [5]: 24.3 µM; IC50 [6]: 17 µM
34 | CCN1C(=O)C(=C2Nc3ccc(Cl)cc3C2=NO)c2cccnc21 [Compound 120] |  |  | 5.27 | 61 µM | 
35 | CC(C)N1C(=O)C(=C2Nc3ccc(Cl)cc3C2=NO)c2cccnc21 [Compound 122] |  |  | 5.10 | 25 µM | 
36 | CCCCN1C(=O)C(=C2Nc3ccc(Br)cc3C2=NO)c2cccnc21 [Compound 123] |  |  | 5.43 | 5 µM | 
37 | CC(C)N1C(=O)C(=C2Nc3ccccc3C2=NO)c2cccnc21 [Compound 130] |  |  | 5.15 | 17 µM | 
38 | CCCCN1C(=O)C(=C2Nc3ccccc3C2=NO)c2cccnc21 [Compound 131, 1-butyl-7-azaindirubin-3′-oxime] |  |  | 4.80 | 80 µM | 
39 | CCN1C(=O)C(=C2C(=O)Nc3ccc(Cl)cc32)c2cccnc21 [Compound 161] |  |  | 4.85 | 45 µM | 
40 | CCN1C(=O)C(=C2C(=O)Nc3ccc(F)cc32)c2cccnc21 [Compound 162] |  |  | 4.76 | 89 µM | 
41 | CC(C)N1C(=O)C(=C2C(=O)Nc3ccc(Br)cc32)c2cccnc21 [Compound 165] |  |  | 5.08 | 28 µM | 
42 | CC(C)N1C(=O)C(=C2C(=O)Nc3ccc(Cl)cc32)c2cccnc21 [Compound 166] |  |  | 5.00 | 31.5 µM | 
43 | CCCCN1C(=O)C(=C2C(=O)Nc3ccccc32)c2cccnc21 [Compound 169] |  |  | 4.85 | 47 µM | 
44 | CCCCN1C(=O)C(=C2C(=O)Nc3ccc(Cl)cc32)c2cccnc21 [Compound 171] |  |  | 5.05 | 46 µM | 
45 | CCCCN1C(=O)C(=C2C(=O)Nc3ccc(F)cc32)c2cccnc21 [Compound 173] |  |  | < 4.00 | > 100 µM | 
46 | O=C1Nc2ccc(Br)cc2C1=C1C(=O)N(Cc2ccccc2)c2ncccc21 [Compound 176] |  |  |  |  | IC50 [1]: 13.7 µM; IC50 [2]: 7.4 µM; IC50 [3]: 4.1 µM; IC50 [4]: 8.3 µM; IC50 [5]: 13.2 µM; IC50 [6]: 20.6 µM
47 | CC1=C(/C=C/C(C)=C/C=C/C(C)=C/C(=O)O)C(C)(C)CCC1 [all-trans retinoic acid, reference compound] |  |  |  |  | pIC50 (DU145 tumor cells; [7]): < 4.30; pIC50 (DU145 tumor cells; [8]): < 4.30

Source: patent publication US8642765B2, “Azaindole-indole coupled derivatives, preparation methods and uses thereof” (priority 2007, dated 2014)
